Experimental data reported in article doi:10.1101/2025.01.28.635346v1 (bioRxiv, 2025).
Read-outs that look alike come from different tables or passages of the source. Bridge positions count the residues as written; N and C are the ends. Peptide text beside a SMILES is read from it.

Columns and labels:
integrin αvβ6 [1] = molecular target: T1, integrin αvβ6 (Homo sapiens, UniProt P06756+P18564); test: ELISA competition assay, integrin αvβ6 binding to LAP; settings: mean
integrin αvβ8 [2] = molecular target: T2, integrin αvβ8 (Homo sapiens, UniProt P06756+P26012); test: ELISA competition assay, integrin αvβ8 binding to LAP
integrin αvβ3 = integrin αvβ3 (Homo sapiens, UniProt P05106+P06756); test: ELISA competition assay, integrin αvβ3; format: binding
integrin αvβ1 = integrin αvβ1 (Homo sapiens, UniProt P05556+P06756); test: ELISA competition assay, integrin αvβ1; format: binding
integrin αvβ5 = integrin αvβ5 (Homo sapiens, UniProt P06756+P18084); test: ELISA competition assay, integrin αvβ5; format: binding
integrin α5β1 = integrin α5β1 (Homo sapiens, UniProt P05556+P08648); test: ELISA competition assay, integrin α5β1; format: binding
integrin α8β1 = integrin α8β1 (Homo sapiens, UniProt P05556+P53708); test: ELISA competition assay, integrin α8β1; format: binding
Mouse αvβ6 = molecular target: T3, Mouse αvβ6 (Mus musculus, UniProt P43406+Q9Z0T9); test: ELISA competition assay, mouse integrin αvβ6; format: binding
T3 sequence (P43406 31-988 limits assumed): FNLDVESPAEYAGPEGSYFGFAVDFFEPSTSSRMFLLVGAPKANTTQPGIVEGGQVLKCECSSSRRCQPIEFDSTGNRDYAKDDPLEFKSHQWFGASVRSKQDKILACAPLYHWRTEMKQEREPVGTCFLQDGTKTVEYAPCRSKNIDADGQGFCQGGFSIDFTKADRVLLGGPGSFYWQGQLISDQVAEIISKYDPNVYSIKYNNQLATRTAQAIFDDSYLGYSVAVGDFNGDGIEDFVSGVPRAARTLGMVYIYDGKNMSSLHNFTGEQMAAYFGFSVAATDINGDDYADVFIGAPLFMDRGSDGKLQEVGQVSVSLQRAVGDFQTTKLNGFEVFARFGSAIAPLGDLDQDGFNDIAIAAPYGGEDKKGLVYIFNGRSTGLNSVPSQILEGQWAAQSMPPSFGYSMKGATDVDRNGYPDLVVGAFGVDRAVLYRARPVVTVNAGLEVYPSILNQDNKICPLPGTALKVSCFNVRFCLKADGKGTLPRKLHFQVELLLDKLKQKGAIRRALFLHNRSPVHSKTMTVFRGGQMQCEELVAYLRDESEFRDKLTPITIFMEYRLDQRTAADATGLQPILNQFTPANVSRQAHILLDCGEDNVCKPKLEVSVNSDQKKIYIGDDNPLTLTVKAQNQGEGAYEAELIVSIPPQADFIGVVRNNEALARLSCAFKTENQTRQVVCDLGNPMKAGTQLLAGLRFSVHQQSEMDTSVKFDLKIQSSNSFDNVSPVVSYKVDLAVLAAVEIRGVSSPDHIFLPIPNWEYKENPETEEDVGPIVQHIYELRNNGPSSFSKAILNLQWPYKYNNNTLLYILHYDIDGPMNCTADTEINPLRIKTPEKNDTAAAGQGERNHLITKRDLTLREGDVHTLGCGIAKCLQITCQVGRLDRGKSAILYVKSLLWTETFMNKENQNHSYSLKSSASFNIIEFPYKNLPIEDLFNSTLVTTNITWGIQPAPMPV
T3 sequence (Q9Z0T9 22-707 limits assumed): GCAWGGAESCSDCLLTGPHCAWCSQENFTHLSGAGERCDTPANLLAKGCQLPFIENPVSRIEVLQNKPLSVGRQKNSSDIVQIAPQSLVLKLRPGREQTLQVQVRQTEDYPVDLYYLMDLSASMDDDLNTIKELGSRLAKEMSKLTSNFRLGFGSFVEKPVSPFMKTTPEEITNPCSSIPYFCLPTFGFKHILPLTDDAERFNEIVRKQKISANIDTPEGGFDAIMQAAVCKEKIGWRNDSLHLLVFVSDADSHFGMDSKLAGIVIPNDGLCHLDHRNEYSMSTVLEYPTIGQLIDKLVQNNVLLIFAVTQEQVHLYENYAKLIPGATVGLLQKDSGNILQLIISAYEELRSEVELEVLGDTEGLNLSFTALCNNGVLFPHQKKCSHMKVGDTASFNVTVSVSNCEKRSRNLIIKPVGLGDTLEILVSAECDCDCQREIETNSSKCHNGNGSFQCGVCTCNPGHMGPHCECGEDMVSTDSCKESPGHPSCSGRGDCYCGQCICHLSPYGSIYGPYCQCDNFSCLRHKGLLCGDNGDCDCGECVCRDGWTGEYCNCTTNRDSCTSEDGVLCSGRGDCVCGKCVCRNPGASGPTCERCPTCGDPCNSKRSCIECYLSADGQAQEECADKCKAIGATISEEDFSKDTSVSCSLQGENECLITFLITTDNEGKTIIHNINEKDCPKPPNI

integrin αvβ6 [3] = molecular target: T1, integrin αvβ6; test: AlphaLISA competition assay vs LAP, biotinylated αvβ6; format: binding
integrin αvβ8 [4] = molecular target: T2, integrin αvβ8; test: AlphaLISA competition assay vs LAP, biotinylated αvβ8; format: binding
[5] = system: αvβ6/8 vs other RGD-integrins; test: Selectivity and potency gain for αvβ6/8, worked out from integrin IC50 values; format: binding, human; settings: 24 and 30 vs 14; 35 vs 28; 36 vs 30; 47 vs 36
integrin αIIbβ3 = molecular target: T4, integrin αIIbβ3 (Homo sapiens, UniProt P05106+P08514); test: ELISA competition assay, integrin αIIbβ3; format: binding
T4 sequence (P08514 32-993 limits assumed): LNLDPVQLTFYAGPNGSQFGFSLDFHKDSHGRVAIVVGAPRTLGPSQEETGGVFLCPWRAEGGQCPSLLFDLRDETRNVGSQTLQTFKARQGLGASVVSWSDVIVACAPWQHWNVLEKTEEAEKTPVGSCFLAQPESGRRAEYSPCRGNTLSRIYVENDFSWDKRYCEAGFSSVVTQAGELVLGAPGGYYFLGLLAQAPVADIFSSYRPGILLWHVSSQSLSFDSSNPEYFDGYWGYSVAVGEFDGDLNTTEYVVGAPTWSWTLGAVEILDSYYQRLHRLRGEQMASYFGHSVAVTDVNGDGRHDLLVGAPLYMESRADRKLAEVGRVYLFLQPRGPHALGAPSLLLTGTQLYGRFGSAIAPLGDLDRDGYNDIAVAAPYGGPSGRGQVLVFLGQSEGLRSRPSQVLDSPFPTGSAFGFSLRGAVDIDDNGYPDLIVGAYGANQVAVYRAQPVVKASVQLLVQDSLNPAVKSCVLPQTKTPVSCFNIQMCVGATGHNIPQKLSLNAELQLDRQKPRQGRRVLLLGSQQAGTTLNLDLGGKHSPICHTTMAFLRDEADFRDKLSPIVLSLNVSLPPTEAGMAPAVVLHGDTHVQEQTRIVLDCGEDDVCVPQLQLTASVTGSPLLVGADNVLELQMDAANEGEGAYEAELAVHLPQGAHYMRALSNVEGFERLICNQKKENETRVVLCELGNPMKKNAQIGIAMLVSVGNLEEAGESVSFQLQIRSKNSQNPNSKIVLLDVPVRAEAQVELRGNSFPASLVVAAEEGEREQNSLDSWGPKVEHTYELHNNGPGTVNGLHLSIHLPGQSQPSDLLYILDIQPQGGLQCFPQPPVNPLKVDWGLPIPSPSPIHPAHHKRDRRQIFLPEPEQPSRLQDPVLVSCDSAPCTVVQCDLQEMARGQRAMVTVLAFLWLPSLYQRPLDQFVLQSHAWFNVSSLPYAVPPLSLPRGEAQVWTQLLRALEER
T4 sequence (P05106 27-718 limits assumed): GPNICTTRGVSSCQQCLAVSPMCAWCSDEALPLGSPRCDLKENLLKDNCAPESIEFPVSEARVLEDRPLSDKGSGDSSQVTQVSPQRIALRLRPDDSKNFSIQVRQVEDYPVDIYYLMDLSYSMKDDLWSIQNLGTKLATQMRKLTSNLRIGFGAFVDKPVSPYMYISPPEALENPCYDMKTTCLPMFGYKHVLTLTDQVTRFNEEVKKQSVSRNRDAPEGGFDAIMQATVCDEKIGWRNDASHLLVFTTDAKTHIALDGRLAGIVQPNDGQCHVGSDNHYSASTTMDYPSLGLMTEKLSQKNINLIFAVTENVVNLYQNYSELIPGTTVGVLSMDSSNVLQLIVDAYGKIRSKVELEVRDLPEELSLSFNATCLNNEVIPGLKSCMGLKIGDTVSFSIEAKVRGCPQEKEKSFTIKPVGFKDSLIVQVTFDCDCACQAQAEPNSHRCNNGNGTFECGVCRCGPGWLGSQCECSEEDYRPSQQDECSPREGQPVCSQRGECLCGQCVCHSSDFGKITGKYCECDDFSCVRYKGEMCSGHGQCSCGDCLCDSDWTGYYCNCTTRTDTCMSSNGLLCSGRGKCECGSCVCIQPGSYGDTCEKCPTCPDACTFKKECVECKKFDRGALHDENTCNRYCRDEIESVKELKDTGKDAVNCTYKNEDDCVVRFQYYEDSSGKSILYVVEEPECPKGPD

[6] = αvβ6 IC50, ELISA competition vs LAP, n ≥ 3

SMILES: COc1ccc([C@H](CC(=O)O)N2CCN(CCCc3ccc4c(n3)NCCC4)C2=O)cn1 [MK-0429, reference compound]
- IC50 (integrin αvβ6 [1]; read-out: Human αvß6 IC50, ELISA run in triplicate, Table S1): 1 nM
- IC50 (integrin αvβ6 [1]; read-out: αvβ6 IC50, ELISA competition vs LAP, n ≥ 3): 1.3 nM
- IC50 (integrin αvβ8 [2]; read-out: αvβ8 IC50, ELISA competition vs LAP, mean, n ≥ 3): 0.7 nM
- IC50 (integrin αvβ3; read-out: αvβ3 IC50, ELISA competition, mean, n ≥ 3): 0.7 nM
- IC50 (integrin αvβ1; read-out: αvβ1 IC50, ELISA competition): 1 nM
- IC50 (integrin αvβ5; read-out: αvβ5 IC50, ELISA competition): 0.08 nM
- IC50 (integrin α5β1; read-out: α5β1 IC50, ELISA competition): 18 nM
- IC50 (integrin α8β1; read-out: α8β1 IC50, ELISA competition): 9 nM
- IC50 (Mouse αvβ6; read-out: Mouse αvß6 IC50, ELISA run in triplicate, mean, Table S1): 2 nM

SMILES: CC[C@H](C)[C@H](NC(=O)[C@H](CC(C)C)NC(=O)[C@H](CC(=O)O)NC(=O)CNC(=O)[C@H](CCCNC(=N)N)NC(=O)[C@H](CCC(N)=O)NC(=O)[C@H](Cc1ccccc1)NC(=O)[C@H](Cc1ccc(O)cc1)NC(=O)[C@@H]1CCC(=O)NCC(=O)NCC(=O)N[C@@H](C)C(=O)NCC(=O)N[C@@H](Cc2c[nH]cn2)C(=O)N[C@@H](C(C)C)C(=O)N2CCC[C@H]2C(=O)N1)C(=O)N[C@@H](CO)C(=O)N[C@@H](Cc1ccccc1)C(=O)N[C@@H](Cc1ccc(O)cc1)C(=O)NCC(=O)O [lassotide 21] (GGAGHVPEYFQRGDLISFYG-OH; lactam N-8; C-terminus assumed)
- IC50 (integrin αvβ6 [1]; Human αvß6 IC50, ELISA run in triplicate, Table S1): 40 nM
- IC50 (Mouse αvβ6): 44 nM
- IC50 (integrin αvβ6 [3]): 16 nM
- IC50 (integrin αvβ8 [4]): 39 nM

SMILES: CC[C@H](C)[C@H](NC(=O)[C@H](CC(C)C)NC(=O)[C@H](CC(=O)O)NC(=O)CNC(=O)[C@H](CCCNC(=N)N)NC(=O)[C@@H](NC(=O)[C@H](Cc1ccccc1)NC(=O)[C@H](Cc1ccc(O)cc1)NC(=O)[C@@H]1CCC(=O)NCC(=O)NCC(=O)N[C@@H](CCCCN)C(=O)NCC(=O)N[C@@H](Cc2c[nH]cn2)C(=O)N[C@@H](C(C)C)C(=O)N2CCC[C@H]2C(=O)N1)C(C)C)C(=O)N[C@@H](CO)C(=O)N[C@@H](Cc1ccccc1)C(=O)N[C@@H](Cc1ccc(O)cc1)C(=O)N[C@@H](CCCCN)C(=O)O [lassotide 35] (GGKGHVPEYFVRGDLISFYK-OH; lactam N-8; C-terminus assumed)
- IC50 (integrin αvβ6 [1]; [6]): 25 nM
- IC50 (integrin αvβ8 [2]): 36 nM
- improvement in potency (IC50) for αvβ6/8 relative to parent lassotide [5]: up to 2 fold

SMILES: CC(C)C[C@H](NC(=O)[C@H](CC(=O)O)NC(=O)CNC(=O)[C@H](CCCNC(=N)N)NC(=O)[C@@H](NC(=O)[C@H](Cc1ccccc1)NC(=O)[C@H](Cc1ccc(O)cc1)NC(=O)[C@@H]1CCC(=O)NCC(=O)NCC(=O)N[C@@H](CCCNC(=N)N)C(=O)NCC(=O)N[C@@H](Cc2c[nH]cn2)C(=O)N[C@@H](C(C)C)C(=O)N2CCC[C@H]2C(=O)N1)C(C)C)C(=O)N[C@@H](CCC(N)=O)C(=O)N[C@@H](CO)C(=O)N[C@@H](Cc1ccccc1)C(=O)N[C@@H](Cc1ccc(O)cc1)C(=O)NCC(=O)O [lassotide 38] (GGRGHVPEYFVRGDLQSFYG-OH; lactam N-8)
- IC50 (integrin αvβ6 [1]; [6]): 3 nM
- IC50 (integrin αvβ3): 185 nM
- IC50 (integrin αvβ1): 13 nM
- IC50 (integrin αvβ5): > 10000 nM
- IC50 (integrin αIIbβ3): 126 nM
- IC50 (integrin α5β1): 397 nM
- IC50 (integrin α8β1): 1290 nM
- IC50 (Mouse αvβ6): 4 nM
